Tests used:
Aβ1-42 = biological target: T1, Aβ1-42 (Homo sapiens, UniProt P05067); experiment: Inhibition of the precipitation of Aβ1-42 by the addition of ligand (Micro BCA assay of soluble/aggregated peptide); assay type: biochemical; settings: Aβ1-42 5 μM, pH 7.4; for CuCl2 % soluble Aβ: 20 μM CuCl2, 1 h 37° C. then 1 h with 200 μM ligand; for FeCl3 % soluble Aβ: 20 μM FeCl3, 1 h 37° C. then 1 h with 200 μM ligand; for ZnCl2 % soluble Aβ: 20 μM ZnCl2, 1 h 37° C. then 1 h with 200 μM ligand; for without metal % soluble Aβ: no metal salt, 1 h 37° C. then 1 h with 200 μM ligand
T1 construct: The β-amyloid peptide Aβ1-42 (Aβ1-42) was synthesised, purified (to a purity greater than 95%); made in house; host or cells: chemical peptide synthesis (no expression host)
T1 sequence (P05067 672-713): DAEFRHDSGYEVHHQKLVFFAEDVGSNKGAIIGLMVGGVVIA
Procedure: After a further hour of incubation, the reaction mixture is centrifuged.
Before use, the water [of Milli-Q Millipore quality] and all buffer solutions were treated on Chelex-100 resin (Biorad) (5 mg/ml) and filtered through 0.2 μm filters (Whatman) to remove potential traces of metal ions or particles.
Working solutions of the peptide were prepared by solubilising 1 mg of lyophilised peptide in 500 μl of water and 500 μl of an aqueous NaOH solution pH=12.0, while stirring in a Thermomixer Comfort (Eppendorf). The peptide preparations are subsequently centrifuged for 10 minutes at 9,000 rpm and the supernatant is used as an “Aβ stock” solution. The concentration of peptide in the “Aβ stock” is determined immediately by colorimetric assay using a Micro BCA Protein Assays kit (Pierce) from standard ranges produced using known amounts of bovine serum albumin (BSA) then the Aβ1-42 peptide solution is aliquoted and frozen rapidly in liquid nitrogen prior to being stored at −20° C. until being used.
Salts are generated by adding one hydrochloric acid equivalent per nitrogen group equivalent of the ligand dissolved in DMSO. After evaporation of the solvent, these salts are dissolved at the desired concentration with DMSO and kept at −20° C. until they are used.
The protocol was established from works by: C. S. Atwood et al., J. Neurochem. […] The final concentrations are given. 500 μl of Aβ1-42 (5 μM is set to aggregate in 20 mM Tris-HCl buffer containing 150 mM NaCl (pH=7.4) for 1 hour at 37° C. while stirring at 1,400 rpm in the absence or presence of metal ions: CuCl2, ZnCl2 or FeCl3 (20 μM). Then 50 pi of ligand to be tested (200 μM) dissolved in DMSO are added and the samples are incubated for 1 further hour at 37° C. while stirring at 1,400 rpm. The samples without ligand also receive 50 μl of DMSO. The samples (final volume=550 μ) are subsequently centrifuged for 20 min at 9,000 rpm, and 500 μl of supernatant are removed. The tube containing the precipitation pellet then receives 450 μl of assay buffer/DMSO mixture (91/9, v/v). […] Quantification is carried out on the basis of standard BSA ranges. The amounts of Aβ1-42 actually contained in the pellet and the supernatant are obtained after a correction due to the presence of a residual portion of supernatant in the pellet-containing fraction.
For the control experiments with derivatives comprising a single quinoline residue, […] of ligand were added because complexes of type L2Cu are conventionally used in these cases.

[1] = Hydrogen peroxide produced by Aβ1-42 in the presence of CuCl2, ascorbate, air and ligand (Amplex Red H2O2/HRP); assay type: biochemical; settings: CuCl2 0.4 μM, ascorbate 10 μM, air
Procedure: (§1) FIG. 11: Variation in H2O2 production by copper complexes of Aβ1-42 peptide as a function of the Cu(II)/Aβ stoichiometry. Experiments are carried out for 5 minutes in a sodium phosphate buffer (pH=7.4) in the presence 0.4 μM CuCl2, 10 μM ascorbate and air with or without 0.4 μM of 3 or 7. The H2O2 released is quantified by means of an Amplex-Red H2O2/HRP Assay kit.
(§2) The final concentrations are given. The reactions were carried out in the dark in mM sodium phosphate buffer (pH=7.4). Aβ1-42 (0.2 μM) and CuCl2 (0.4 μM) were pre-incubated for 1 hour at 37° C. while stirring at 1,400 rpm in 375 μl of buffer. Then 2 μl of a solution of ligand to be investigated (0.2; 0.4 or 0.8 μM) in DMSO were added. After incubation for a further hour, 2 μl of an aqueous sodium ascorbate solution (10 μM) were added and incubation was continued for 5 min while stirring. The amount of H2O2 produced is then quantified using an Amplex Red H2O2/HRP Assay Kit (Molecular Probes) while adding a volume of assay reagent to the samples, then incubating them for 1 hour at 37° C. while stirring at 500 rpm. […] Quantification is carried out on the basis of standard curves obtained with known amounts of H2O2.
(§3) The figures in the tables correspond to the amount of H2O2 (expressed in nanomoles) added using an Amplex Red H2O2/HRP Assay kit.

[2] = biological target: T2, copper complexes of Aβ1-42 peptide (Homo sapiens, UniProt P05067); experiment: as above; assay type: biochemical; settings: CuCl2 0.4 μM, ascorbate 10 μM, air
T2 construct: The β-amyloid peptide Aβ1-42 (Aβ1-42) was synthesised, purified (to a purity greater than 95%); made in house; host or cells: chemical peptide synthesis (no expression host)
T2 sequence (P05067 672-713 limits assumed, one chain of several): as the sequence (P05067 672-713) above
Procedure: as §1, §2, §3

[3] = Determination of log D7.4 (1-octanol / Tris-HCl buffer); assay type: physicochemical; settings: 1-octanol / 20 mM Tris-HCl buffer containing 150 mM NaCl (pH = 7.4) (1/1, v/v)
Procedure: The ligand (2.0 mg) is dissolved in 2 ml of 1-octanol then 2 ml of 20 mM Tris-HCl buffer, pH=7.4 containing 150 mM NaCl are added. After mixing in a vortex for 3 min at ambient temperature, followed by centrifugation for 5 min at 9,000 rpm, the concentration of the ligand in each phase is determined by UV-visible spectrophotometry. The 1-octanol fractions are thus redivided until reproducible values of coefficient of division of obtained. This coefficient is expressed as the decimal logarithm of [(the concentration of ligand contained in the 1-octanol phase)/(the concentration of ligand contained in the buffered aqueous phase)]=log D7.4. Measurements were taken three times.

[4] = tested on: Salmonella tiphimurium TA98; experiment: AMES test, TA98; settings: value per plate
From the text: (§4) AMES test: The method is adapted from D. M. Maron and B. N. Ames, Mutat.
(§5) The test involves evaluating the potential of the tested molecules to induce mutation which is reverse to the histidine locus of these lines. These two lines were provided by Dr. Bruce N. Ames (University of California, Berkeley, USA). They are resistant to Ampicillin and sensitive to Tetracycline. They are not mutant toward rfa, UvγV and UvγA. The line TA98 (his D3052) contains a mutation of reading phase (GC) whereas the line TA100 (his G46) contains a substitution of base pair (GC).
(§6) The compounds to be tested were dissolved in 100% of DMSO (the solvent) and diluted logarithmically (by a factor of 10) so as to obtain 4 test concentrations of 30,000; 3,000; 300 and 30 μg/ml. Each series of 0.1 ml of stock solution to be tested, 0.1 ml of test line and of culture medium with or without 0.5 ml of enzymatic homogenate (S9) of rat liver microsome were mixed with 2 ml of molten agarose (containing 0.5 mM of histidine and 0.5 mM of biotin). This mixture was placed on the surface of a plate of minimal agarose glucose medium (30 ml for each Petri dish) so as to obtain final concentrations of compound to be tested of 3,000; 300; 30 and 3 μγ/plate. The plates were then incubated at 37° C. for 48 hours. […] The revertant colonies of the test lines were counted using a colony counter (Sigma). […] A compound inducing a number of colonies <50% of cells obtained for the solvent alone was deemed to be toxic for the bacteria tested. All the experiments were carried out in triplicate.

[5] = tested on: Salmonella tiphimurium TA100; experiment: AMES test, TA100; settings: value per plate
From the text: as §4, §5, §6

[6] = UV-visible spectrophotometric titration with CuCl2 (metal/ligand stoichiometry); assay type: binding; settings: 15 μM ligand; Tris-HCl buffer pH 7.4/organic solvent, per ligand as in Table 3 column Solvent
Procedure: An organic solvent (CH3OH, dioxane or DMSO) was added in order to achieve good solubility of the ligands and metal complexes in the concentrations used in these experiments. Exact proportions of the organic solvent/buffer mixture are specified for each UV-visible characterisation of the different ligands or metal complexes.
Aliquot portions of concentrated CuCl2 or ZnCl2 solutions (M) are added to a 15 μM ligand solution so as to induce only negligible variations in volume. After each addition, changes in absorption spectra are observed immediately and are consistent between two additions, which corresponds to a rapid complexing process. The exact absorption values relating to each ligand and the copper(II) or zinc(II) complexes thereof are detailed hereinafter in the Experimental part (in the Synthesis part for ligands and hereinafter for the metal complexes).
The stoichiometry of the different ligands (L) for Cu(II) or ZN(II) have therefore been determined spectrophotometrically by metal ion titration. In this example, for an M/L ratio increasing from 0 to 1, π→π* with transition, centred at 251 nm for the free ligand, is shifted to a lower energy with a concomitant appearance of an absorption band in the visible region of the spectrum (λmax to 383 nm), which is probably the result of an MLCT transition. For greater M/L ratios, no additional change in the UV-visible absorption spectra is observed.

[7] = Competition reaction between ligand (Ls), CuCl2 and competing chelator (Lc), UV-visible; affinity constants; settings: Ls/CuCl2/Lc 1/1/1 at 15 μM; solvent per ligand as in Table 3
Procedure: An organic solvent (CH3OH, dioxane or DMSO) was added in order to achieve good solubility of all the ligands and metal complexes in the concentrations used in these experiments. Monitoring has shown that all the ligands and metal complexes examined yield results corresponding to the Beer-Lambert Law in the experimental conditions used.
Lc competing chelators were selected to provide a range of stability constants for the metal ion M presenting intervals of approximately one or two log units, as well as to make it possible for each competition experiment to quantify one of the Ls, MLs, Lcc or MLc species with a UV-vis spectrum wavelength without contaminating the three other species (FIG. 7). […] As the concentration [MLs]=x % of C is measured on the UV-visible spectra, the concentrations [Ls]=(1−x) % of C, [MLc]=(1−x) % of C and [Lc]=x % of C can be deduced therefrom and:
In these conditions, [MLs]=[MLc]; [MLs]+[Lc]=Y, y≧50 and:

[8] = biological target: T2, copper complexes of Aβ1-42 peptide; experiment: Stability of H2O2 during the H2O2 production inhibition experiments (known amount of H2O2 added); assay type: biochemical; settings: Aβ1-42 0.2 μM, Cu(II) 0.4 μM, ascorbate 10 μM, ligand 0.4 μM
Procedure: (§7) The final concentrations are given. The reactions were carried out in the dark in mM sodium phosphate buffer (pH=7.4). Aβ1-42 (0.2 μM) and CuCl2 (0.4 μM) were pre-incubated for 1 hour at 37° C. while stirring at 1,400 rpm in 375 μl of buffer. Then 2 μl of a solution of ligand to be investigated (0.2; 0.4 or 0.8 μM) in DMSO were added. After incubation for a further hour, 2 μl of an aqueous sodium ascorbate solution (10 μM) were added and incubation was continued for 5 min while stirring. The amount of H2O2 produced is then quantified using an Amplex Red H2O2/HRP Assay Kit (Molecular Probes) while adding a volume of assay reagent to the samples, then incubating them for 1 hour at 37° C. while stirring at 500 rpm. H2O2 is then detected by spectrophotometry at 563 nm. Quantification is carried out on the basis of standard curves obtained with known amounts of H2O2.
(§8) Experiments were also carried out in the presence of a known amount of H2O2, added just before or just after the addition of sodium ascorbate, in order to investigate the stability of H2O2 under the experimental conditions employed.

[9] = tested on: copper complexes of Aβ1-42 peptide; experiment: as above; assay type: biochemical; settings: Aβ1-42 0.2 μM, Cu(II), ascorbate, ligand, 3.0 nanomoles H2O2 added just before the ascorbate
Procedure: as §7, §8

Oc1c(I)cc(Cl)c2cccnc12 [Clioquinol, reference compound]
CuCl2 % soluble Aβ (Aβ1-42): 55 ± 3%
FeCl3 % soluble Aβ (Aβ1-42): 51%
ZnCl2 % soluble Aβ (Aβ1-42): 37%
without metal % soluble Aβ (Aβ1-42): 63%
amount of H2O2, without Aβ1-42 ([1]; ligand 1 eq/Cu(II) (0.4 μM)): 2.07 nmol
amount of H2O2, without Aβ1-42 ([1]; ligand 2 eq/Cu(II)): 0.54 nmol
amount of H2O2, 0.2 μM Aβ1-42 Cu/Aβ = 2 ([2]; ligand 1 eq/Cu(II) (0.4 μM)): 0.89 ± 0.08 nmol
amount of H2O2, 0.5 μM Aβ1-42 Cu/Aβ = 0.75 ([2]; ligand 1 eq/Cu(II) (0.4 μM)): 0.64 nmol
amount of H2O2, 0.2 μM Aβ1-42 Cu/Aβ = 2 ([2]; ligand 2 eq/Cu(II)): 0.78 ± 0.06 nmol
amount of H2O2, 0.5 μM Aβ1-42 Cu/Aβ = 0.75 ([2]; ligand 2 eq/Cu(II)): 0.57 nmol
logD at 3 min [3]: 3.8 ± 0.1
TA98 Cytotoxicity ([4]; Addition of S9: no): 300 µg
TA98 Cytotoxicity ([4]; Addition of S9: yes): 300 µg
TA100 Cytotoxicity ([5]; Addition of S9: no): 30 µg
TA100 Cytotoxicity ([5]; Addition of S9: yes): 30 µg

c1cnc2c(NCCCNc3cccc4cccnc34)cccc2c1 [Compound 13, N,N′-di-8-quinolinyl-1,3-propanediamine]
Complex observed by titration with Cu^II (observed L/Cu(II) stoichiometry) [6]: LCu^II(1/1)
CuCl2 % soluble Aβ (Aβ1-42): 55 ± 3%
FeCl3 % soluble Aβ (Aβ1-42): 66%
ZnCl2 % soluble Aβ (Aβ1-42): 57%
without metal % soluble Aβ (Aβ1-42): 71 ± 2%
amount of H2O2, without Aβ1-42 ([1]; ligand 1 eq/Cu(II) (0.4 μM)): 0.89 nmol
amount of H2O2, 0.2 μM Aβ1-42 Cu/Aβ = 2 ([2]; ligand 1 eq/Cu(II) (0.4 μM)): 2.10 nmol
amount of H2O2, 0.5 μM Aβ1-42 Cu/Aβ = 0.75 ([2]; ligand 1 eq/Cu(II) (0.4 μM)): 0.70 nmol
logD at 3 min [3]: 2.7 ± 0.1
percentage of the CuLs species at equilibrium, competing ligand EDDA [7]: 65%
percentage of the CuLs species at equilibrium, competing ligand EDTA [7]: 25%

Cc1ccc2cccc(NCCNc3cccc4ccc(C)nc34)c2n1 [Compound 14, N,N′-bis(2-methyl-8-quinolinyl)-1,2-ethanediamine]
CuCl2 % soluble Aβ (Aβ1-42): 45 ± 3%
FeCl3 % soluble Aβ (Aβ1-42): 51%
ZnCl2 % soluble Aβ (Aβ1-42): 57%
without metal % soluble Aβ (Aβ1-42): 79 ± 3%
amount of H2O2, without Aβ1-42 ([1]; ligand 1 eq/Cu(II) (0.4 μM)): 0.74 nmol
amount of H2O2, 0.2 μM Aβ1-42 Cu/Aβ = 2 ([2]; ligand 1 eq/Cu(II) (0.4 μM)): 1.99 nmol
amount of H2O2, 0.5 μM Aβ1-42 Cu/Aβ = 0.75 ([2]; ligand 1 eq/Cu(II) (0.4 μM)): 0.78 nmol
H2O2 assayed ([8]; 3.0 nanomoles H2O2 added just before the ascorbate): 4.9 nmol
H2O2 assayed ([8]; no H2O2 added): 1.99 ± 0.11 nmol
theoretical value of H2O2 if there is no degradation (in parentheses) [9]: 5.0 nmol
logD at 3 min [3]: 1.8 ± 0.1

Reference: patent US20120277265A1, “NOVEL POLYQUINOLINE DERIVATIVES AND THE THERAPEUTIC USE THEREOF” (CENTRE NATIONAL DE LA RECHERCHE SCIENTIFIQUE (C.N.R.S.), priority 2005, published 2012)
